Measured values: PMC11558128 (Advanced Science, 2024)
Changes are numbered by the printed parent chain. Where two headings read alike, the source gives them in different places. Positions of bridges follow the written chain, without caps; N, C: chain ends. Residues, ends and D or L forms follow the SMILES beside them.

What was measured:
Assay in all cases: cell-based
rKv4.2 D284K = target: T1, rKv4.2 D284K (Rattus norvegicus, UniProt Q63881, D284K); details: mean ± SEM
T1 construct: expressed in transfected cells; host or cells: HEK293T
T1 sequence (Q63881 1-630 D284K): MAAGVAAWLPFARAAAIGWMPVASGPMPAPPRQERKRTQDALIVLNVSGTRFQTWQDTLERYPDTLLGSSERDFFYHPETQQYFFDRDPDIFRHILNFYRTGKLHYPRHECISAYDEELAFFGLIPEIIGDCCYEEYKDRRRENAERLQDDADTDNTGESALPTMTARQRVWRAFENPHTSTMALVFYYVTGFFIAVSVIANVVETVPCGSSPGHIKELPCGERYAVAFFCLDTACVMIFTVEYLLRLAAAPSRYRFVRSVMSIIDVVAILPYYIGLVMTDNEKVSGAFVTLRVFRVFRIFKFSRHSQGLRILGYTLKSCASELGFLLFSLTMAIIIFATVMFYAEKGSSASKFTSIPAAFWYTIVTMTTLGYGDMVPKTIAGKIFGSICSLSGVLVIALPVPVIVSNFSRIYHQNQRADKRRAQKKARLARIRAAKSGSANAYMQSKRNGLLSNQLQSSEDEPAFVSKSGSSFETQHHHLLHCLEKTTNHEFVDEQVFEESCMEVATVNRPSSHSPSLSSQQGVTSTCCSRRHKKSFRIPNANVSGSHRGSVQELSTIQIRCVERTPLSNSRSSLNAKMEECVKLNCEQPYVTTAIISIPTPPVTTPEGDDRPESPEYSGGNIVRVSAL

rKv4.3 = target: T2, rKv4.3 (Rattus norvegicus, UniProt Q62897); details: whole-cell patch clamp, HEK293T, mean ± S.E.M., SEM
T2 construct: expressed in transfected cells; host or cells: HEK293T
T2 sequence (Q62897 1-655): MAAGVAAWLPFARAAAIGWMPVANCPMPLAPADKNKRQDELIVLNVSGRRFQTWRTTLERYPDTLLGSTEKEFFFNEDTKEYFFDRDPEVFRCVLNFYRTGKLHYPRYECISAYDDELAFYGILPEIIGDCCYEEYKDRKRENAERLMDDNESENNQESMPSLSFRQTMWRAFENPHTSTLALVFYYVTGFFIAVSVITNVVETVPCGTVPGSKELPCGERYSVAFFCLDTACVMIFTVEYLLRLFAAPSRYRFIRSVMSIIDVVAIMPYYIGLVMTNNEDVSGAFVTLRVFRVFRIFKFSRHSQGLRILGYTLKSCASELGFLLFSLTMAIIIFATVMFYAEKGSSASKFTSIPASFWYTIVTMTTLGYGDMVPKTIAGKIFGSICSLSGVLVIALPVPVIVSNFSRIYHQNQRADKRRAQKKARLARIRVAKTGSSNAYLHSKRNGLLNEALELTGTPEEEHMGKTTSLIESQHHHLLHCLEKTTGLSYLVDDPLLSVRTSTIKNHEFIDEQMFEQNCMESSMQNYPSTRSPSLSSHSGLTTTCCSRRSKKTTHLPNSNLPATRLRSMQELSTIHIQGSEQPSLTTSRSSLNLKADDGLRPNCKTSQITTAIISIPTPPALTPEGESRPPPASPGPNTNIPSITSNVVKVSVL

rKv4.2 T280A = target: T3, rKv4.2 T280A (Rattus norvegicus, UniProt Q63881, T280A); details: mean ± SEM
T3 construct: expressed in transfected cells; host or cells: HEK293T
T3 sequence (Q63881 1-630 T280A): T1 sequence (Q63881 1-630 D284K) with T280A, K284D

rKv4.2 = target: T4, rKv4.2 (Rattus norvegicus, UniProt Q63881); details: whole-cell patch clamp, HEK293T, n = 3-8, SEM
T4 construct: expressed in transfected cells; host or cells: HEK293T
T4 sequence (Q63881 1-630): T1 sequence (Q63881 1-630 D284K) with K284D

[1] = held at -80 mV, step to 0 mV, n = 3-8
[2] = mean ± SEM, read-out: IC50 on rKv4.2 WT

## CC(C)C[C@H](NC(=O)[C@H](Cc1ccc(O)cc1)NC(=O)[C@@H](NC(=O)[C@H](CCCCN)NC(=O)[C@@H]1CSSC[C@@H]2NC(=O)[C@H](CCC(=O)O)NC(=O)[C@H](CC(N)=O)NC(=O)[C@H](CCCCN)NC(=O)CNC(=O)[C@@H]3CCCN3C(=O)[C@H]([C@@H](C)O)NC(=O)[C@@H]3CSSC[C@H](NC(=O)[C@H](C)NC(=O)[C@H](Cc4ccc(O)cc4)NC(=O)[C@H](CC(N)=O)NC(=O)[C@@H]4CCCN4C(=O)[C@H](CSSC[C@H](NC(=O)CN)C(=O)N[C@@H](CCCCN)C(=O)NCC(=O)N[C@@H](Cc4ccccc4)C(=O)NCC(=O)N[C@@H](CC(=O)O)C(=O)N[C@@H](CO)C(=O)N3)NC2=O)C(=O)N[C@@H](CO)C(=O)N[C@@H](CO)C(=O)N[C@@H](CCCCN)C(=O)N[C@@H](Cc2c[nH]cn2)C(=O)N[C@@H](CCCCN)C(=O)N[C@@H](Cc2c[nH]c3ccccc23)C(=O)N1)C(C)C)C(N)=O [HNTX-III] (H-GCKGFGDSCTPGKNECCPNYACSSKHKWCKVYL-NH2; disulfide 2-17, 9-22, 16-29)
rKv4.2 D284K
  IC50: > 20 µM
rKv4.3; [1]
  IC50: 0.373 ± 0.0655 µM
rKv4.2 T280A
  IC50: 0.038 ± 0.014 µM
rKv4.2; [2]
  IC50: 0.162 ± 0.023 µM

## CC[C@H](C)[C@H](NC(=O)[C@H](CCC(=O)O)NC(=O)[C@H](Cc1ccc(O)cc1)NC(=O)[C@H](CCCCN)NC(=O)[C@@H]1CSSC[C@@H]2NC(=O)[C@H](CCC(N)=O)NC(=O)[C@H](CC(=O)O)NC(=O)[C@H](CC(N)=O)NC(=O)[C@H](CO)NC(=O)[C@@H]3CCCN3C(=O)[C@H](CC(N)=O)NC(=O)[C@@H]3CSSC[C@H](NC(=O)[C@H](C(C)C)NC(=O)[C@H](CC(C)C)NC(=O)[C@H](CC(N)=O)NC(=O)[C@H](CO)NC(=O)[C@H](CO)NC(=O)[C@H](CCCCN)NC(=O)[C@H](CSSC[C@H](NC(=O)[C@@H](N)CCC(=O)O)C(=O)N[C@@H](CC(C)C)C(=O)NCC(=O)N[C@@H](Cc4ccccc4)C(=O)NCC(=O)N[C@@H](CCCCN)C(=O)NCC(=O)N3)NC2=O)C(=O)N[C@@H](CO)C(=O)N[C@@H](CCCNC(=N)N)C(=O)N[C@@H](CCCCN)C(=O)N[C@@H](Cc2c[nH]cn2)C(=O)N[C@@H](CCCNC(=N)N)C(=O)N[C@@H](Cc2c[nH]c3ccccc23)C(=O)N1)C(N)=O [HNTX-IV]
rKv4.2 D284K
  IC50: > 20 µM
rKv4.3; [1]
  IC50: 0.189 ± 0.0147 µM
rKv4.2 T280A
  IC50: 0.136 ± 0.021 µM
rKv4.2; [2]
  IC50: 0.051 ± 0.01 µM

## CC(C)C[C@@H]1NC(=O)[C@H](Cc2c[nH]c3ccccc23)NC(=O)[C@H](Cc2ccc(O)cc2)NC(=O)[C@H](CCCNC(=N)N)NC(=O)[C@@H](NC(=O)[C@@H](N)CCC(=O)O)CSSC[C@@H]2NC(=O)[C@@H]3CSSC[C@@H](C(=O)N[C@H](C(=O)N[C@@H](Cc4c[nH]c5ccccc45)C(=O)N[C@@H](CC(=O)O)C(=O)N[C@@H](Cc4c[nH]c5ccccc45)C(=O)N[C@H](C(=O)N[C@@H](Cc4ccccc4)C(N)=O)[C@@H](C)O)C(C)C)NC(=O)[C@H](Cc4c[nH]c5ccccc45)NC(=O)CNC(=O)[C@H](Cc4c[nH]cn4)NC(=O)[C@H](CCCCN)NC(=O)[C@@H]4CCCN4C(=O)[C@H](CO)NC(=O)[C@H](CSSC[C@H](NC(=O)[C@H]([C@@H](C)O)NC(=O)CNC1=O)C(=O)N[C@@H](CO)C(=O)N[C@@H](CCCCN)C(=O)N[C@@H]([C@@H](C)O)C(=O)NCC(=O)N[C@@H](CC(=O)O)C(=O)N3)NC(=O)[C@H](CO)NC(=O)[C@H](CC(C)C)NC(=O)[C@H](Cc1c[nH]cn1)NC(=O)[C@H](CO)NC2=O [HNTX-VIIa] (H-ECRYWLGTCSKTGDCCSHLSCSPKHGWCVWDWTF-NH2; disulfide 2-16, 9-21, 15-28)
rKv4.2 D284K; SEM
  IC50: 0.047 ± 0.006 µM
rKv4.3; [1]
  IC50: 0.13 ± 0.0145 µM
rKv4.2 T280A
  IC50: 0.013 ± 0.002 µM
rKv4.2; held at -80 mV, step to 0 mV, mean ± S.E.M., read-out: IC50 for rKv4.2
  IC50: 0.018 ± 0.0032 µM

## CSCC[C@@H]1NC(=O)CNC(=O)[C@H](CCC(=O)O)NC(=O)[C@@H]2CSSC[C@H](NC(=O)[C@@H](N)Cc3ccc(O)cc3)C(=O)N[C@@H](CCC(N)=O)C(=O)N[C@@H](CCCCN)C(=O)N[C@@H](Cc3c[nH]c4ccccc34)C(=O)N[C@@H](CCSC)C(=O)N[C@@H](Cc3c[nH]c4ccccc34)C(=O)N[C@@H]([C@@H](C)O)C(=O)N[C@H]3CSSC[C@H](NC(=O)[C@H](C(C)C)NC1=O)C(=O)N[C@@H](CCCNC(=N)N)C(=O)N[C@@H](CC(C)C)C(=O)N[C@@H](Cc1c[nH]c4ccccc14)C(=O)N[C@H](C(=O)N[C@@H](CCCCN)C(=O)N[C@@H](CCCCN)C(=O)N[C@@H](CCCCN)C(=O)N[C@@H](CC(C)C)C(=O)N[C@@H](Cc1c[nH]c4ccccc14)C(=O)O)CSSC[C@H](NC(=O)[C@H](CCCCN)NC(=O)[C@H](CCCNC(=N)N)NC(=O)[C@H](CCC(=O)O)NC(=O)[C@H](CO)NC(=O)[C@H](CC(=O)O)NC3=O)C(=O)N2 [ProTx-II]
rKv4.2 D284K; SEM
  IC50: 0.02 ± 0.002 µM
rKv4.3; [1]
  IC50: 0.0051 ± 0.0004 µM
rKv4.2 T280A
  IC50: 0.089 ± 0.021 µM
rKv4.2; [2]
  IC50: 0.005 ± 0.002 µM

## CC[C@H](C)[C@@H]1NC(=O)[C@@H]2CSSC[C@@H]3NC(=O)[C@H](C(C)C)NC(=O)[C@H](CC(C)C)NC(=O)[C@H](CC(N)=O)NC(=O)[C@@H]4CCCN4C(=O)[C@H](CCCNC(=N)N)NC(=O)[C@H](CSSC[C@H](NC(=O)[C@@H](N)CC(=O)O)C(=O)N[C@@H](CC(C)C)C(=O)NCC(=O)N[C@@H](C)C(=O)N[C@@H](Cc4ccccc4)C(=O)N[C@@H](CCCNC(=N)N)C(=O)N[C@@H](CCCCN)C(=O)N2)NC(=O)[C@H](CSSC[C@@H](C(=O)N[C@@H](CCCCN)C(=O)N[C@@H](Cc2ccc(O)cc2)C(=O)N[C@H](C(=O)N[C@@H](Cc2ccccc2)C(N)=O)C(C)C)NC(=O)[C@H](Cc2c[nH]c4ccccc24)NC(=O)[C@H](CCCNC(=N)N)NC(=O)[C@H](Cc2c[nH]cn2)NC(=O)[C@H](C)NC(=O)[C@H](CO)NC(=O)[C@H](CO)NC3=O)NC(=O)[C@H](CCCCN)NC(=O)[C@H](CC(=O)O)NC(=O)[C@H](CC(N)=O)NC(=O)[C@H](CC(=O)O)NC(=O)[C@@H]2CCCN2C1=O [mGpTx1-SA] (H-DCLGAFRKCIPDNDKCCRPNLVCSSAHRWCKYVF-NH2; disulfide 2-17, 9-23, 16-30)
rKv4.3; n = 5
  IC50: 2 ± 0.3 µM
rKv4.2; [2]
  IC50: 30 ± 9 µM
